By IC50 is commonly meant the point on the concentration scale where inhibition reaches its midpoint.

We go through 6 molecules from ChEMBL document CHEMBL1136185, “Linearized and truncated microcystin analogues as inhibitors of protein phosphatases 1 and 2A” (Bioorg Med Chem Lett, 2003).

For this assay, the target named is T1, Serine-threonine protein phosphatase 2A regulatory subunit (Gallus gallus, UniProt Q8AWE3).
T1 sequence (Q8AWE3 whole entry): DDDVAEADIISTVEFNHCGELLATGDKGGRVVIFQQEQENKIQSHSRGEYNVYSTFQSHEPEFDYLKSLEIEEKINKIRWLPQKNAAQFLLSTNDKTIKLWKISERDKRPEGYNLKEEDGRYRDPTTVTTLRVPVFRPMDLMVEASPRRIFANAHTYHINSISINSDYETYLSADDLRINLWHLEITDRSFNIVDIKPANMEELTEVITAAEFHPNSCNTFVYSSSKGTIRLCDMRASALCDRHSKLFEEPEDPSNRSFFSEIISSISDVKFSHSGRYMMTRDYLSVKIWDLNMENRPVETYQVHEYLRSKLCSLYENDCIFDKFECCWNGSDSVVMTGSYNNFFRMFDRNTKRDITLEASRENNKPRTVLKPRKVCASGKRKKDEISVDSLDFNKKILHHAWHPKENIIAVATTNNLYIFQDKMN
The experiment in a line: Inhibitory concentration required against protein phosphatase 2A using pNPP assay.

Molecule `CO[C@@H](Cc1ccccc1)[C@@H](C)/C=C(C)/C=C/[C@H](NC(C)=O)[C@H](C)C(=O)N[C@H](CCC(=O)N(C)C)C(=O)O` returned an IC50 of 20 µM.

The molecule `COC(=O)[C@@H](CCC(=O)N(C)C)NC(=O)[C@@H](C)[C@H](/C=C/C(C)=C/[C@H](C)[C@H](Cc1ccccc1)OC)NC(C)=O` gave an IC50 above 100 µM.

As for `CO[C@@H](Cc1ccccc1)[C@@H](C)/C=C(C)/C=C/[C@H](NC(C)=O)[C@H](C)C(=O)N[C@H](CCC(=O)N(C)CC(=O)N[C@H](C)C(=O)N[C@@H](CC(C)C)C(=O)O)C(=O)O`, 17 µM corresponded to half-maximal inhibition (IC50).

`CO[C@@H](Cc1ccccc1)[C@@H](C)/C=C(C)/C=C/[C@H](NC(C)=O)[C@H](C)C(=O)N[C@H](CCC(=O)N(C)CC(=O)N[C@H](C)C(=O)O)C(=O)O` yielded an IC50 of 135 µM.

Take `C=C(C(=O)N[C@H](C)C(=O)N[C@@H](CC(C)C)C(=O)O)N(C)C(=O)CC[C@@H](NC(=O)[C@@H](C)[C@H](/C=C/C(C)=C/[C@H](C)[C@H](Cc1ccccc1)OC)NC(C)=O)C(=O)O`: inhibition was half-maximal at 16 µM (IC50).

Molecule `CO[C@@H](Cc1ccccc1)[C@@H](C)/C=C(C)/C=C/[C@H](N)[C@H](C)C(=O)N[C@H](CCC(=O)N(C)CC(=O)N[C@H](C)C(=O)O)C(=O)O` showed an IC50 of 270 µM.
